Patent US20190216779A1, “USE OF NEUROKININ-1 ANTAGONISTS TO TREAT A VARIETY OF PRURITIC CONDITIONS” (MENLO THERAPEUTICS INC., priority 2016, published 2019)

Columns and labels:
[1] = cited from earlier work
[2] = tested on: subjects with chronic pruritus and prurigo nodularis; experiment: Phase II randomized, double-blind, placebo-controlled clinical study of serlopitant in chronic pruritus due to prurigo nodularis; type: in vivo, human; conditions: for Mean difference Serlopitant − Placebo (SE) in change of average itch VAS score from baseline by repeated measures analysis: 5 mg once daily oral, 10 cm VAS
Procedure: A well-controlled human clinical trial assessing the efficacy of serlopitant in the treatment of pruritus associated with prurigo nodularis (PN) was approved by an Institutional Review Board and was conducted in accordance with the ICH Guidelines for Good Clinical Practices. German regulations on recordkeeping of subject information, and any local regulatory requirements. The study was a Phase II randomized, double-blind, placebo-controlled, multicenter trial designed to evaluate the efficacy and safety of serlopitant versus placebo in subjects with PN. […] The subjects had chronic pruritus due to PN.
Subjects were randomized to receive either a 5-mg tablet of serlopitant or a matching placebo tablet. Subjects took a tablet of serlopitant or placebo once daily by mouth for 8 weeks following a loading dose of 3 tablets on the first day of treatment. The maximum study duration for each subject was about 14 weeks and included a screening period of up to 4 weeks, a treatment period of 8 weeks, and a follow-up period of 2 weeks.
At Baseline, the average itch VAS score (average itch over the past 24 hours) for the serlopitant group and the placebo group was 7.88 and 7.92, respectively. […] Furthermore, a once-daily 5 mg dose of serlopitant led to a 4-point responder rate (the proportion of subjects achieving ≥4-point improvement on a 10-point scale) of 54% with respect to the average itch VAS score at Week 8 compared to 25% for placebo.

[3] = Solubility test of serlopitant in Franz cell receptor solution; type: physicochemical
[4] = In vitro skin permeation of serlopitant in topical formulations, Franz diffusion cell; type: in vitro ADME; conditions: topical formulations B and C, human skin, 37° C., LC-MS/MS
Procedure: In vitro skin permeation of serlopitant in topical formulations A-D was evaluated using a Franz diffusion cell. FIG. 1 illustrates a Franz diffusion cell. A Franz diffusion cell having a circular permeation area of 4.15 cm^2 and a receptor chamber volume of 19 mL was set up with a thermo-regulated outer water jacket to maintain the temperature at 37° C. The receptor chamber was filled with 19 mL 1×PBS (pH 7.5) containing 10% ethanol and 1% Tween® 80.
Human skin was pre-treated to remove all subcutaneous fat and was cleaned with 70% ethanol before use. The skin was visually inspected to ensure that it was free of any surface irregularity or small holes and was equally divided into four pieces. The skin was then mounted onto the receptor chamber with the stratum corneum side facing up. […]
All samples were processed by solid-phase extraction (SPE) before LC-MS/MS analysis. […] Serlopitant concentrations in samples resulting from formulations A-D were determined by comparison to the standard. Serlopitant was not detected in samples resulting from topical formulations A and D, as expected. […] After an initial lag, serlopitant was detected by LC-MS/MS in the receptor chamber at 6 hours.
The amount of serlopitant retained in the skin was determined at the end of the experiment. […] Extracted serlopitant was quantified by LC-MS/MS. […]

[5] = tested on: subjects with chronic pruritus; experiment: Phase II randomized, double-blind, placebo-controlled clinical study of serlopitant in chronic pruritus; type: in vivo, human; conditions: for 4-point responder rate (proportion of subjects achieving ≥4-point improvement on a 10-point scale) in the average VAS itch score: Week 6, placebo 26%; for relief of itch in the NRS score compared to placebo (secondary efficacy endpoint; data not shown) / relief of itch in the VAS score compared to placebo (primary efficacy endpoint): Weeks 4, 5 and 6
Procedure: A well-controlled human clinical trial assessing the efficacy of serlopitant in the treatment of chronic pruritus was approved by an Institutional Review Board and was conducted in accordance with the International Conference on Harmonisation (ICH) Guidelines for Good Clinical Practices, the U.S. Code of Federal Regulations, the Health Insurance Portability and Accountability Act (HIPAA), and any local regulatory requirements. The study was a Phase II randomized, double-blind, parallel-group, placebo-controlled, multicenter trial designed to evaluate the efficacy and safety of serlopitant versus placebo in subjects with chronic pruritus.
Subjects were randomized to receive a 0.25 mg, 1 mg or 5 mg tablet of serlopitant or a matching placebo tablet. Subjects took one tablet of serlopitant or placebo once daily by mouth for a total of 6 weeks following a loading dose of 3 tablets on the first day of treatment. The maximum study duration for each subject was about 12 weeks and included a screening period of up to 2 weeks, a treatment period of 6 weeks, and a follow-up period of 4 weeks. The screening period was extended up to 44 days if a washout period from any prohibited medications was required.

[6] = all three doses (0.25 mg, 1 mg, 5 mg once daily, 6 weeks)

Compound: C[C@@H](O[C@H]1CC[C@@H]2CN(C3=CC(=O)CC3)C[C@H]2[C@@H]1c1ccc(F)cc1)c1cc(C(F)(F)F)cc(C(F)(F)F)c1 [Form I]
- thermodynamic stability of polymorph ([1]; Form I compared with Form II): thermodynamically more stable below 70 °C
- hygroscopicity ([1]; all tested relative humidity conditions): non-hygroscopic

Compound: C[C@@H](O[C@H]1CC[C@@H]2CN(C3=CC(=O)CC3)C[C@H]2[C@@H]1c1ccc(F)cc1)c1cc(C(F)(F)F)cc(C(F)(F)F)c1 [serlopitant, 3-[(3aR,4R,5S,7aS)-5-[(1R)-1-[3,5-bis(trifluoromethyl)phenyl]ethoxy]-4-(4-fluorophenyl)octahydro-2H-isoindol-2-yl]cyclopent-2-en-1-one]
- Mean difference Serlopitant − Placebo (SE) in change of average itch VAS score from baseline by repeated measures analysis ([2]; Week 2, 95% CI (−1.5, −0.2), p 0.0111): −0.9 (0.34)
- Mean difference Serlopitant − Placebo (SE) in change of average itch VAS score from baseline by repeated measures analysis ([2]; Week 4, 95% CI (−1.8, −0.1), p 0.0248): −1.0 (0.43)
- Mean difference Serlopitant − Placebo (SE) in change of average itch VAS score from baseline by repeated measures analysis ([2]; Week 8, 95% CI (−2.6, −0.7), p 0.0005): −1.7 (0.47)
- adverse event diarrhea (most common adverse events) ([2]; 5 mg once daily, 8 weeks): 11%
- adverse event nasopharyngitis (most common adverse events) ([2]; 5 mg once daily, 8 weeks): 17%
- intensity of treatment-emergent adverse events ([2]; 5 mg once daily, 8 weeks): generally mild or moderate
- tolerability and safety ([2]; 5 mg once daily, 8 weeks): well tolerated and safe
- improvement in pruritus on the IGA vs placebo ([2]; once-daily 5 mg dose): greater improvement
- 4-point responder rate with respect to the average itch VAS score ([2]; once-daily 5 mg dose, Week 8, placebo 25%): 54%
- 4-point responder rate with respect to the worst itch NRS score ([2]; once-daily 5 mg dose, Week 8, placebo 26%): 47%
- proportion of subjects reporting “no/mild pruritus” on the VRS ([2]; once-daily 5 mg dose, Week 8, placebo 28.9%): 54.4%
- proportion of subjects reporting improvement in pruritus on the PGA ([2]; once-daily 5 mg dose, Week 8, placebo 54.3%): 82.5%
- decrease in the average itch VAS score from Baseline compared to placebo ([2]; once-daily 5 mg dose, Weeks 2, 4, and 8): statistically significant decrease
- improvement in the worst itch VAS score from Baseline to Week 8 vs placebo ([2]; once-daily 5 mg dose, p=0.0024): statistically significantly, greater improvement
- decrease in the average itch NRS score from Baseline to Week 8 vs placebo ([2]; once-daily 5 mg dose, p=0.0069): statistically significantly greater decrease
- solubility in receptor solution ([3]; 1×PBS (pH 7.5) containing 10% ethanol and 1% Tween 80, 1 hour of incubation at 37° C.): remained soluble at concentrations of 0.5, 5 and 50 ug/mL
- change of solubility if Tween 80 was not used ([3]; receptor solution without Tween 80): decreased significantly
- change of solubility if ethanol was not used ([3]; receptor solution without ethanol): decreased slightly
- time at which serlopitant was detected in the receptor chamber after an initial lag [4]: 6 h
- Least squares mean % change from baseline in average VAS itch score ([5]; 0.25 mg once daily oral, Week 1, n = 64): −9.1 ± 3.9%
- Least squares mean % change from baseline in average VAS itch score ([5]; 0.25 mg once daily oral, Week 2, n = 64): −14.9 ± 4.0%
- Least squares mean % change from baseline in average VAS itch score ([5]; 0.25 mg once daily oral, Week 3, n = 64): −21.4 ± 4.0%
- Least squares mean % change from baseline in average VAS itch score ([5]; 0.25 mg once daily oral, Week 4, n = 64): −29.0 ± 4.0%
- Least squares mean % change from baseline in average VAS itch score ([5]; 0.25 mg once daily oral, Week 5, n = 64): −32.4 ± 4.0%
- Least squares mean % change from baseline in average VAS itch score ([5]; 0.25 mg once daily oral, Week 6, n = 64): −34.1 ± 4.1%
- Least squares mean % change from baseline in average VAS itch score ([5]; 1 mg once daily oral, Week 1, n = 65): −11.8 ± 3.9%
- Least squares mean % change from baseline in average VAS itch score ([5]; 1 mg once daily oral, Week 2, n = 65): −22.0 ± 4.0%
- Least squares mean % change from baseline in average VAS itch score ([5]; 1 mg once daily oral, Week 3, n = 65): −30.2 ± 4.0%
- Least squares mean % change from baseline in average VAS itch score ([5]; 1 mg once daily oral, Week 4, n = 65, p < 0.05 vs placebo): −33.1 ± 4.0 %
- Least squares mean % change from baseline in average VAS itch score ([5]; 1 mg once daily oral, Week 5, n = 65, p < 0.05 vs placebo): −38.0 ± 4.1 %
- Least squares mean % change from baseline in average VAS itch score ([5]; 1 mg once daily oral, Week 6, n = 65, p < 0.05 vs placebo): −41.4 ± 4.0 %
- Least squares mean % change from baseline in average VAS itch score ([5]; 5 mg once daily oral, Week 1, n = 64): −12.0 ± 3.9%
- Least squares mean % change from baseline in average VAS itch score ([5]; 5 mg once daily oral, Week 2, n = 64): −20.3 ± 4.0%
- Least squares mean % change from baseline in average VAS itch score ([5]; 5 mg once daily oral, Week 3, n = 64): −28.8 ± 4.0%
- Least squares mean % change from baseline in average VAS itch score ([5]; 5 mg once daily oral, Week 4, n = 64, p < 0.05 vs placebo): −34.2 ± 4.0 %
- Least squares mean % change from baseline in average VAS itch score ([5]; 5 mg once daily oral, Week 5, n = 64, p < 0.05 vs placebo): −37.3 ± 4.0 %
- Least squares mean % change from baseline in average VAS itch score ([5]; 5 mg once daily oral, Week 6, n = 64, p < 0.05 vs placebo): −42.5 ± 4.1 %
- intensity of all adverse events [5, 6]: mild or moderate intensity
- most common treatment-emergent adverse events [5, 6]: diarrhea, somnolence and headache in the low single-digit percent
- tolerability and safety profile [5, 6]: well tolerated and exhibited an excellent safety profile
- 4-point responder rate (proportion of subjects achieving ≥4-point improvement on a 10-point scale) in the average VAS itch score ([5]; once-daily 1 mg dose): 42%
- relief of itch in the NRS score compared to placebo (secondary efficacy endpoint; data not shown) ([5]; once-daily 1 mg dose): statistically significant improvement in relief of itch
- relief of itch in the VAS score compared to placebo (primary efficacy endpoint) ([5]; once-daily 1 mg dose): statistically significant improvement in relief of itch
- 4-point responder rate (proportion of subjects achieving ≥4-point improvement on a 10-point scale) in the average VAS itch score ([5]; once-daily 5 mg dose): 53%
- relief of itch in the NRS score compared to placebo (secondary efficacy endpoint; data not shown) ([5]; once-daily 5 mg dose): statistically significant improvement in relief of itch
- relief of itch in the VAS score compared to placebo (primary efficacy endpoint) ([5]; once-daily 5 mg dose): statistically significant improvement in relief of itch
